Test results as given in EP0087750B2, “Amino acid preparations containing glutaminic residues” (Kabi Pharmacia GmbH, priority 1982, dated 1994).
≈ marks a conversion by molar mass, not a printed value. Residues, ends and D or L forms follow the SMILES beside them.

What was measured:
[1] = tested on: Hydrolasen in den Geweben des Organismus; details: in vivo, cited from earlier work
physchem = assay type: physicochemical; details: water
Description: (§1) Es wurde nun erkannt, daß das Glutamin als an der α-Aminogruppe durch α-Aminoacylreste substituiertes Derivat, d. h. in Form der Tri- oder Dipeptide des Glutamins dem Organismus, insbesondere durch Infusionslösungen, zugeführt werden kann, ohne Gefahr der Bildung des toxischen Cyclisierungsprodukts. Diese Di- und Tripeptide des Glutamins mit anderen Aminosäuren, wie Glycin, Alanin, Leucin, Isoleucin oder Valin, sind sehr leicht wasserlöslich, so daß sie gegebenenfalls in relativ hoher Konzentration in den Infusionslösungen angewendet werden können, wobei gleichzeitig dem Organismus auch andere Aminosäuren zugeführt werden, ohne daß dadurch osmotische Problem auftreten. Die Löslichkeit beispielsweise des Gly-Ala-Gln beträgt 680 g/L H₂O, während die freien Aminosäuren eine geringere Löslichkeit besitzen: […]: 225 g/L H₂O; Alanin: 158 g/L H₂O und Glutamin: […] H₂O.

Solubility in water = assay type: physicochemical
Description: as §1

Compound: Glycyl-leucin
- Elimination aus dem Plasma ([1]; iv): schnell aus dem Plasma eliminiert
- Spaltung durch Hydrolasen in den Geweben [1]: gut gespalten

Compound: NC(=O)CC[C@H](N)C(=O)O [Glutamin]
- solubility (physchem): 325 mg/mL (≈ 2220 mM)

Compound: C[C@H](N)C(=O)O [Alanin]
- solubility (physchem): 158 mg/mL (≈ 1770 mM)

Compound: C[C@H](NC(=O)CN)C(=O)N[C@@H](CCC(N)=O)C(=O)O [Gly-Ala-Gln, Glycyl-L-alanyl-L-glutamin] (H-Gly-Ala-Gln-OH)
- Löslichkeit (Solubility in water): 680 g/L H₂O

Compound: Glycerin
- Löslichkeit (physchem): 225 g/L H₂O
